Test results published in ChEMBL document CHEMBL5154711, “Discovery of Novel Sphingosine-1-Phosphate-1 Receptor Agonists for the Treatment of Multiple Sclerosis” (J Med Chem, 2022).

How the values were obtained:
[1] = in vitro; settings: mouse, microsomes
[2] = in vitro; settings: human, microsomes
[3] = in vivo; settings: rat, iv, 1 mg/kg
[4] = in vivo; settings: rat, po, 10 mg/kg
[5] = in vivo; settings: rat, iv, 1 mg/kg; remark: listed apart in the source
[6] = in vivo; settings: rat, iv, 1 mg/kg; remark: listed apart in the source
[7] = in vivo; settings: rat, iv, 1 mg/kg; remark: listed apart in the source
[8] = in vivo; settings: rat, po, 10 mg/kg; remark: listed apart in the source
[9] = in vivo; settings: rat, po, 10 mg/kg; remark: listed apart in the source
[10] = in vitro; settings: rat, liver microsomes
[11] = in vivo; settings: rat, po, 10 mg/kg; remark: listed apart in the source
[12] = in vivo; settings: rat, iv, 10 mg/kg

Work on `CC(C)Oc1ccc(C2CC(c3ccc(CN4CCC(C(=O)O)CC4)cc3)=NO2)cc1Cl` (stereo not given) yielded a remaining at 0.5 h, 1 µM [1] of 84.5% and a remaining at 0.5 h, 1 µM [2] of 73.5%.

For `COC(=O)C1CN(Cc2ccc(-n3cc(-c4ccc(OC(C)C)c(Cl)c4)nn3)cc2)C1`, the remaining at 0.5 h, 1 µM [1] was 19% and the remaining at 0.5 h, 1 µM [2] was 23.2%.

Molecule `CC(C)Oc1ccc(-n2cc(-c3ccc(CN4CC(C(=O)O)C4)cc3)nn2)cc1Cl` has a remaining at 0.5 h, 1 µM [1] greater than 99% and a remaining at 0.5 h, 1 µM [2] of 98.5%.

For `CC(C)(C)c1ccc(C2CC(c3ccc(CN4CC(C(=O)[O-])C4)cc3)=NO2)cc1.[Na+]` (stereo not given), the Vd [3] was 2.6 L/kg, the Cmax [4] was 1070 ng/mL and the AUC(0-inf) [5] was 1160 ng·h/mL. It also gave a clearance [6] of 13.1 mL/min/kg, a half-life [7] of 2.4 h and a half-life [8] of 3.1 h. It also gave a remaining at 0.5 h, 1 µM [1] of 96.7%, a bioavailability [9] of 44.9% and a remaining at 0.5 h, 1 µM [10] of 95.1%. For the same molecule, the Tmax [11] was 2.3 h, the AUC(0-inf) [12] was 5190 ng·h/mL and the remaining at 0.5 h, 1 µM [2] was 93.8%.

With `COC(=O)C1CN(Cc2ccc(-c3cn(-c4ccc(OC(C)C)c(Cl)c4)nn3)cc2)C1` the remaining at 0.5 h, 1 µM [1] was 28.8% and the remaining at 0.5 h, 1 µM [2] was 24.1%.
